From US20250163113A1, “PEPTIDES TARGETING THE INTERACTION BETWEEN KINDLIN-1 AND Beta-INTEGRIN” (INSTITUT CURIE, priority 2022, published 2025)
Residues, ends and D or L forms follow the SMILES beside them.

Assays:
[1] = system: H358 lung cancer cell line; test: NCI-H358 KRAS-dependent lung cancer xenograft mouse model; assay type: in vivo; conditions: 10 mg/Kg intraperitoneal 5 days per week
Protocol: FIG. 9: Kindpep decreases tumor growth of KRAS-dependent tumors in vivo. A. Diagram presenting the course of the experiment. B. Scatter plot showing the tumor volume of the different mice of the control and Kindpep1 treated groups, at the end of the treatment. Mean±SD are represented (*p<0.05). C. Graph monitoring tumor growth of control and Kindpep1 treated mice during the course of the experiment. Mean±SD are represented.
NCI-H358 model: 1×10^5 cells were injected subcutaneously in the flanks of 6-week old female BALB/c mice (n=10 mice for each control and treated groups). Tumor volume was measured with caliper 3 times a week. […] Tumor volumes were calculated as: Volume (cm^3)=a×b^2/2 (a and b are the two registered perpendicular diameters a>b). Tumor growth inhibition (TGI) was calculated using the following formula [1−(Vft−V0t)/(Vfc−V0c))]*100 where Vft=final volume of the treated group (at the end of the treatment); Vot=initial volume of the treatment group (at the beginning of the treatment); Vfc=final volume of the control group (at the end of the treatment); V0c=initial volume of the control group (at the beginning of the treatment).
Finally, inventors wanted to validate in vivo the impact of Kindpep1 treatment in KRAS-dependent tumors. […] The treatment was administered by intraperitoneal injections 5 days per week and tumor growth was monitored for 50 days (FIG. 9A).

4T1-luc cells = test: 4T1-luc metastatic breast cancer model in BALB/c mice; assay type: in vivo; conditions: BALB/c mice, 2, 10 or 50 mg/kg, 7 day per week during 10 days
Source text: FIG. 5: Kindpep1 reduces tumor growth and metastatic spread in breast cancer in vivo. A. Diagram presenting the course of the experiment. B. Corresponding relative tumor growth graph to bioluminescence images of tumors at day 25. C. Corresponding graph showing the quantification of the total area of metastatic nodules found in the different groups of mice to bioluminescence images of metastasis at day 25. Area ph/s/group stands for area photon/second/group.
4T1-luc model: 1×10^5 4T1-luc cells were inoculated subcutaneously in the flanks of 6-week old female BALB/c mice (n=28). Eleven days after tumor cell inoculation, […] mice were randomly assigned to receive intraperitoneal injection of Kindpep1 (2, 10 or 50 mg/kg) or placebo (PBS). The tumor growth and the progression of metastatic lesions were also weekly monitored by bioluminescence imaging of animals using the Nightowl imaging system. On day 25 after tumor cell inoculation, anesthetized mice were sacrificed by cervical dislocation.
These observations prompted the investigation of the effects of Kindpep1 in vivo. […] Thus, the effects of Kindpep1 on tumor dissemination in a metastatic breast cancer model was studied. 4T1 cells were used because they have a high Kindlin-1 expression and have been also described to form lung metastasis in vivo. […]

[2] = system: triple negative breast cancer PDX; test: Triple negative breast cancer patient derived xenograft (PDX) model; assay type: in vivo; conditions: nude mice, 10 mg/Kg intraperitoneal 5 days per week
Protocol: FIG. 6: Kindpep1 reduces the metastatic spread in a breast cancer PDX model. A. Diagram presenting the course of the experiment. B Quantification of the number of metastatic nodules found in the lungs of control and Kindpep1 treated mice. Mean±SEM are represented. Statistical analyses were performed by a t-test.
The triple negative breast cancer PDX model expressing high levels of Kindlin-1 was obtained from the Laboratoire d'Investigation Pré-clinique. Informed consent was obtained from patient before xenograft establishment. When tumor reached a volume of 60 to 200 mm^3, mice were randomly assigned to the control or treated group. Kindpep1 was administrated by intraperitoneal injection at a dose of 10 mg/kg 5 times a week. The vehicle alone (Nacl 0.9%) was administered to the control group following the same treatment regimen as with the drug. The control and treated group consisted of 10 mice each.
Then, a triple negative breast cancer patient derived xenograft (PDX) model previously characterized as highly metastatic and presenting high expression levels of Kindlin-1 was chosen. Tumor fragments were grafted into the interscapular fat pad of female nude immunodeficient mice and 5 days later the treatment started. […] The treatment was administered by intraperitoneal injections 5 days per week and tumor growth was monitored until reaching the ethical size, i.e. 2 cm^3 (FIG. 6A). […]

β1-integrin = target: T1, β1-integrin (Homo sapiens, UniProt P05556); test: Flow cytometry of cell-surface active β1-integrin (9EG7) in MDA MB 231 cells; assay type: cell-based; conditions: MDA MB 231, 2 mM MnCl2, positive control
T1 construct: endogenous in cells; host or cells: MDA MB 231 human breast cancer cells
Protocol: FIG. 3: Kindpep1 reduces β1-integrin activation. Fluorescence activated sorter (FACS) histograms (top) and the corresponding bar graphs showing the mean fluorescence intensity (MFI) of cell-surface active β-1 integrin (9EG7 staining) of MDA MB 231 cells untreated, treated with Kindpep1 (200 μM) for 15 h or treated with 2 mM MnCl2.
To quantify the expression levels of integrins, cultured cells were trypsinized, washed and incubated for 1 h at 4° C. in phosphate-buffered saline (PBS) containing 150 mM NaCl and 1% BSA with the rat anti-1 integrin (9EG7 clone, 1:300) primary antibodies obtained from BD Biosciences. Cells were then washed 3 times, incubated with Alexa Fluor 488-conjugated secondary antibody for 1 h at 4° C. and washed. 1×10^4 cells were analyzed on a FACS Calibur. The mean fluorescence intensity of each sample was obtained using the Flowing software 2.
The effect of Kindpep1 on β1-integrin activation was confirmed by performing the same immunofluorescence assays using the human breast cancer cell line MDA MB 231, characterized by a high Kindlin-1 protein endogeneous expression.

[3] = target: β1-integrin of 168FARN mouse breast cancer cells (endogenous) (mouse) (UniProt P09055); test: cell-based or functional assay
Sequence of β1-integrin of 168FARN mouse breast cancer cells (endogenous) (mouse) (P09055 21-798): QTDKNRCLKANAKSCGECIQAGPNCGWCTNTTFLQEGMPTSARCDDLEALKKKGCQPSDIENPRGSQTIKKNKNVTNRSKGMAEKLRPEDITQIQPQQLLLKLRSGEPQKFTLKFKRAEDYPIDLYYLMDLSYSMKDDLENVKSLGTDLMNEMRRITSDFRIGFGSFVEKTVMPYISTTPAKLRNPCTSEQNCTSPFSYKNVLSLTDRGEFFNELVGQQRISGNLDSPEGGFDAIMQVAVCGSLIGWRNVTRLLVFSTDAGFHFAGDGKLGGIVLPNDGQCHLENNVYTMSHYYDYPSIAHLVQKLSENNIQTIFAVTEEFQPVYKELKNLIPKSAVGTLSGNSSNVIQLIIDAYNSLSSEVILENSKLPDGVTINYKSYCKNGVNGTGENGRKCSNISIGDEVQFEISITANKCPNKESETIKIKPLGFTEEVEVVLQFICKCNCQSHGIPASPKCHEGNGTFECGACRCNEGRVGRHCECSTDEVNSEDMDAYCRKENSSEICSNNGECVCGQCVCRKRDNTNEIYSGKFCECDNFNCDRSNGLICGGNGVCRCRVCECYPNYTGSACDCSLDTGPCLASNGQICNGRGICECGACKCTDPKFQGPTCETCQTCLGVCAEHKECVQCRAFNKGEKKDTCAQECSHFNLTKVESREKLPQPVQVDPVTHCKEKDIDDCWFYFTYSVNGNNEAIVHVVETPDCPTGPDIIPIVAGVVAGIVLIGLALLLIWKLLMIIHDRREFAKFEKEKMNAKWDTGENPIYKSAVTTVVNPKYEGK

T1 sequence (P05556 21-798): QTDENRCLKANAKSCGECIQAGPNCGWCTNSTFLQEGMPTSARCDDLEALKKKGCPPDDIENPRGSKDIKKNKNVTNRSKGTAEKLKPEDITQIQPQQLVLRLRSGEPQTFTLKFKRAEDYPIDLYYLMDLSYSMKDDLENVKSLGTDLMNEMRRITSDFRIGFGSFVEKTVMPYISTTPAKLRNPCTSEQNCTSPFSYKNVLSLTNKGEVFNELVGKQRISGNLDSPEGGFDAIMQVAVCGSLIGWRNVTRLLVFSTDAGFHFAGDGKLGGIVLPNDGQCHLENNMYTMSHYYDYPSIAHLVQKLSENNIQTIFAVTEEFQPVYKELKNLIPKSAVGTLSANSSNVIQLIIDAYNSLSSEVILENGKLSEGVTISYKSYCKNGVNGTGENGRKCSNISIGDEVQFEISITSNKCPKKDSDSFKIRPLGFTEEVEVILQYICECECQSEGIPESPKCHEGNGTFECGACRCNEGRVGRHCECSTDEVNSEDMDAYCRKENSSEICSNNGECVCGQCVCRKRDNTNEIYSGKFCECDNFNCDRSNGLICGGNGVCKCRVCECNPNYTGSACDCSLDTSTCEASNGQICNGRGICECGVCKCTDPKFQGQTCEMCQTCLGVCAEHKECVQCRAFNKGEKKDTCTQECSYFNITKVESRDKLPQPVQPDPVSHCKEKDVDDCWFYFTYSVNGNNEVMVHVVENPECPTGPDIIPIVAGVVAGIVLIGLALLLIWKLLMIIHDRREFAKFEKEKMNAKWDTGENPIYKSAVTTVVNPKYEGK

CC[C@H](C)[C@H](NC(=O)[C@H](CCCCN)NC(=O)[C@H](CCCCN)NC(=O)[C@H](CCCCN)NC(=O)[C@H](CCCCN)NC(=O)[C@@H](N)C(C)C)C(=O)N[C@@H](CCCCN)C(=O)N[C@@H](C)C(=O)N[C@@H](CCC(=O)O)C(=O)N[C@H](C(=O)N[C@@H](CCCCN)C(=O)N[C@H](C(=O)N[C@@H](CO)C(=O)N[C@@H](Cc1ccccc1)C(=O)N[C@@H](CC(C)C)C(=O)N[C@@H](CCCNC(=N)N)C(=O)N[C@@H](CCSC)C(=O)N[C@@H](CCCCN)C(=O)N[C@@H](CC(N)=O)C(=O)N[C@@H](CCCNC(=N)N)C(=O)N[C@@H](CC(N)=O)C(=O)N[C@@H](CO)C(=O)N[C@@H](C)C(=O)N[C@@H](CO)C(=O)N[C@@H](CCC(N)=O)C(=O)N[C@H](C(=O)N[C@@H](C)C(=O)N[C@@H](CO)C(=O)N[C@@H](CO)C(=O)N[C@@H](CC(C)C)C(=O)O)C(C)C)[C@@H](C)CC)[C@@H](C)CC [Kindpep1] (H-VKKKKIKAEIKISFLRMKNRNSASQVASSL-OH)
toxicities in nude mice [1]: without apparent toxicities
death during the treatment (4T1-luc cells): no death was observed
side effects (4T1-luc cells): no any side effects was detected
death during the treatment [2]: no death was observed
side effects [2]: no side effects were detected

[Cl][Mn][Cl] [MnCl2]
levels of active β1-integrin on the cell surface (flow cytometry, 9EG7) (β1-integrin): increase levels of active β1-integrin

wild-type Kindlin-1 expressed in 168FARN cells (from UniProt Q9BQL6 1-677)
velocity of cell migration of 168FARN cells in 3D collagen matrix (time-lapse tracking) [3]: 3.8 fold
